Measured values reported in US20180008688A1, “METHOD AND COMPOSITIONS FOR ENHANCING IMMUNOTHERAPEUTIC TREATMENT OF A CANCER” (Augusta University Research Institute, Inc., priority 2016, published 2018).

Test system: p53
Assay: p53 expression in mononuclear cells of tumors after systemic nutlin-3a (FACS)
Format: in vivo, mouse
Conditions: FIG. 7
Procedure: Antibody against the N-terminus of p53 (clone 1C12), used as in Watanabe et al., (2014) Immunity 40: 681-691, was from Cell Signaling Technology. Antibody against the C-terminus p53 (clone PAb122 (Gurney et al., (1980) J. Virol. 34: 752-763) was from Novus Biologicals. For both antibodies, staining was performed following permeablization with eBioscience fix-and-perm. Anti-phospho-p53(Ser15) (clone D4S1H) was from Cell Signaling Technology. For phospho-specific staining, cells were washed in PBS, fixed with 2% paraformaldehyde for 10 min at 37° C., pre-chilled for 1 min, then permeabilized by slow addition of ice-cold methanol to a final concentration of 90%. Cells were then incubated on ice for 30 min, washed with 1% FCS/PBS, blocked with the same solution for 10 min at room temperature, then for 1 h at room temperature and washed. Cells were acquired immediately after staining.
VO-OHpic was given at 10 mg/kg/day i.p., in 10% DMSO/PBS. Cyclophosphamide was given at 150 mg/kg i.p×1 dose. Oxaliplatin was given at 5 mg/kg i.p×1 dose. Nutlin-3a was dissolved at 2 mg/ml in 10% DMSO in buffered saline and administered daily at 10 mg/kg/day i.p. The 10 mg/kg/day dose was at the lower end of the parenteral dosing range described for mice (Zhang et al., (2011) Drug Meta. Dispos. 39: 15-21). […]

Question: Which “effect on p53 in remaining tumor cells (negative for CD11c/Ly6c/Gr 1)” value does the source give for `COc1ccc(C2=NC(c3ccc(Cl)cc3)C(c3ccc(Cl)cc3)N2C(=O)N2CCNC(=O)C2)c(OC(C)C)c1` (single isomer, unassigned; (-)) [nutlin-3a, (−)-4-(4,5-Bis(4-chlorophenyl)-2-(2-isopropoxy-4-methoxyphenyl)-4,5-dihydro-1H-imidazole-1-carbonyl)piperazin-2-one] here?
Answer: little effect

Question: And the “increase in p53 levels in CD11c+ cells and myeloid cells in tumors” value (systemic nutlin-3a, including Ly6c+CD11c^NEG myeloid precursors)?
Answer: 2-3 fold
